Data from paper PMC9570109, “Improved Trimethylangelicin Analogs for Cystic Fibrosis: Design, Synthesis and Preliminary Screening” (International Journal of Molecular Sciences, 2022).

Tests used:
[1] = system: Salmonella typhimurium mutant TA97A, TA98, TA100, and TA1535 strains; test: Ames test, overall result on all strains; assay type: cell-based; conditions: all concentrations, with and without S9 mix
Procedure: To investigate whether changes in the structure of TMA abolish the mutagenic effect observed with this class of compounds, the most promising TMA analogs were evaluated by the Ames test. Compounds 4-PhDMA and pANDMA were tested for genotoxicity evaluation using the histidine-requiring Salmonella typhimurium mutant TA97A, TA98, TA100, and TA1535 strains that allow checking frameshift mutation and base pair substitution, with and without metabolic activation induced by S9 Mix.
The number of spontaneous revertants is relatively constant, but it dramatically increases—generally in a dose-dependent way—when a mutagen is added to the plate. […]
The mutagenicity assay was performed for the test compounds following the plate incorporation method with the histidine-requiring Salmonella typhimurium mutant TA97A, TA98, TA100, and TA1535 strains purchased by Molecular Toxicology Inc. (Boone, NC, USA; moltox.com). […] The plates were incubated at 37 °C for 72 h and then his+ revertants were checked and counted using a Colony Counter 560 Suntex (Antibioticos, Italy). […] Statistical analysis: relative standard deviations were calculated using the statistical software STATISTICA 6.0 (StatSoft, Italia srl, Vigonza, Italy).

HepG2 cells = test: Cytotoxicity MTT assay on HepG2 cells; conditions: HepG2, 24 h, highest concentration tested (50 μM)
Procedure: The potential toxicity of TMA analogs on hepatic tissue was assessed by evaluating the viability of HepG2 cells (ATCC, HB-8065) using the MTT assay, as previously reported [22]. Cells were maintained in DMEM complete medium (10% FBS, 1% l-glutamine and 1% PEN-STREP) and seeded in a 96-well plate (5 × 10^4 cells/mL). They were treated for 24 h with TMA analogs (concentration range from 3.125 μM to 50 μM). At the end of the treatment, cells were washed and an MTT solution (0.5 mg/mL in complete medium) was added to each well and incubated for 4 h at 37 °C. The solution was discarded, and the produced blue formazan crystals were dissolved with acidified isopropanol (2% HCl). Absorbance was measured at 570 nm using a multiplate reader (Victor Nivo, Perkin Elmer). The percentage of viable cells was calculated considering untreated cells as control.
The data shown in this figure are the results of three independent experiments, each
performed in quadruplicate.

[2] = In vivo oral pharmacokinetics in mice; conditions: c57BL/6 male mice; for AUC 0-inf / CL/F / Cmax / Tmax / t1/2: 20 mg/kg gavage, in water; for oral bioavailability: water as vehicle
Procedure: The main pharmacokinetic parameters of 4-PhDMA, pANDMA, and pANDMA mesylate were evaluated in c57BL/6 male mice, using water as dispersing vehicle.
All experimental procedures involving animals were conducted in accordance with the 3R principle to minimize their pain and discomfort. […] For the PK analysis, C57Bl6 male mice (n = 3 per time point) were gavaged with selected compounds (20 mg/kg), suspended in water, or dissolved in SEDDS formulations, after an overnight fast. […] 8.0 software (GraphPad Software Inc., San Diego, CA, USA), when appropriate. If not otherwise stated, the PK data are expressed as mean ± SD. p < 0.05 was considered statistically significant.
The TMA analogs were extracted and analyzed from mouse plasma as already reported. Briefly, 100 µL of plasma were treated with 300 µL of cold acetonitrile spiked with 80 nM of internal standard (IS, 6,4′-dimethylangelicin), and then the samples were centrifuged for 10 min at 12,000× g (Hettich Mikro 120 Benchtop Centrifuge) and 25 °C. Ten microliters of the supernatant were injected into the UHPLC system.
The analytical column was a Kinetex 2.6 μm C18 Polar, 100 A, 100 × 2.1 mm (Phenomenex, Bologna, Italy), thermostated at 30 °C. The mobile phase components A and B were water and methanol, respectively, both containing 10 mM ammonium formate. The eluent flow rate was 0.25 mL/min. […] MS data were analyzed using the Mass Hunter Qualitative Analysis software (Agilent Technologies, Palo Alto, CA, USA).
Chromatographic peaks of the TMA analog were identified and integrated by considering the Extracted Ion Chromatogram (EIC) of the [M+H]^+ species selected with a window of 5 ppm and normalized by the IS. Quantification of TMA analogs was carried out by external calibration of normalized signals using a seven-point calibration curve obtained by spiking blank plasma with each TMA analog in the range of 20–3000 nM.

## Cc1cc2c(-c3ccccc3)cc(=O)oc2c2c(C)coc12 [4-PhDMA]
[1]
  genotoxic activity (Ames test): non-genotoxic
HepG2 cells
  cell viability: greater than 75%
[2]
  AUC 0-inf: 2.74736 ± 0.51361 µM·h
  CL/F: 0.0014 ± 0.0014 mL/h/g
  Cmax: 222 ± 184 nM
  Tmax: 1.25 ± 1.06 h
  t1/2: 21.13 ± 0.98 h
  oral bioavailability: very low

## Cc1cc(=O)oc2c1cc(-c1ccc(N)cc1)c1occ(C)c12 [pANDMA]
[1]
  genotoxic activity (Ames test): non-genotoxic
HepG2 cells
  cell viability: greater than 75%
[2]
  AUC 0-inf: 2.4054 ± 0.2082 µM·h
  CL/F: 0.0083 ± 0.0007 mL/h/g
  Tmax: 0.5 ± 0 h
  t1/2: 1.91 ± 0.71 h
  oral bioavailability: very low
[2]; 20 mg/kg
  Cmax: 1520 ± 261 nM
